Common to all, as to assay type: in vivo, mouse
Data set [1] concerns female C57BL/6 mice. In words: Open-field exploration (OFE): locomotor activity and anxiety (thigmotaxis). The protocol:
Seven-week-old female C57BL/6 mice were purchased from Charles River (Wilmington, Mass., USA) and allowed to habituate to the facility for 7 days, followed by 3 days of handling before the start of the experiment. Mice were randomly assigned into groups, with all groups represented in each cage. […]
Behavioral experiments were adapted from a published protocol (35). Data were analyzed blinded to the experimental conditions. […]
For the OFE task, each mouse was allowed to explore the arena for 10 min. The camera footage was then analyzed using ToxTrac, a published program for the total distance moved and time spent in the peripheral versus the central areas (36). For the DOR task, pairs of 50-mL tubes filled with corn cob bedding were taped cap-down to pre-determined positions in the arena. […] The camera footage was then analyzed for bouts of interactions with the tubes. […] Casual touching of the tubes in passing, or leaning onto the tubes to look around were not counted. The preference index for the displaced object was calculated as 100*(time spent with displaced object)/(total time spent with both displaced and familiar objects). The preference index for the familiar object was similarly calculated. […]

The test system of data set [2] is female C57BL/6 mice. In words: Displaced object recognition (DOR) task in paclitaxel-induced model of cognitive impairment. As to conditions: for preference for the displaced object (DOR task): saline and paclitaxel 4×20 mg/kg, 20 mg/kg. The protocol:
(§1) Seven-week-old female C57BL/6 mice were purchased from Charles River (Wilmington, Mass., USA) and allowed to habituate to the facility for 7 days, followed by 3 days of handling before the start of the experiment. Mice were randomly assigned into groups, with all groups represented in each cage. Depending on the treatment group, lithium chloride (Sigma-Aldrich, 12.8 mg/kg in 0.9% saline), chelerythrine chloride (Cayman Chemical, 2 mg/kg in 0.4% DMSO in saline), or the appropriate vehicle was administered intraperitoneally 1 h before injection of vehicle (20% 50:50 Cremophor EL: ethanol, 80% saline) or paclitaxel (Cayman Chemical, 20 mg/kg in 20% 50:50 Cremophor EL: ethanol, 80% saline) to induce cognitive impairment. Each mouse received a total of 4 pairs of injections over 8 days. During and after injections, mice were weighed daily and checked for general health and any sign of pain or distress.
Behavioral experiments were adapted from a published protocol (35). Data were analyzed blinded to the experimental conditions. Open-field exploration (OFE) and displaced object recognition (DOR) tasks were carried out over two consecutive days (FIG. 4.1). The experimental arena was a 35×70×35 cm opaque, white Plexiglas chamber. The arena was covered with ˜1 cm of standard corn cob bedding. […]
For the OFE task, each mouse was allowed to explore the arena for 10 min. The camera footage was then analyzed using ToxTrac, a published program for the total distance moved and time spent in the peripheral versus the central areas (36). For the DOR task, pairs of 50-mL tubes filled with corn cob bedding were taped cap-down to pre-determined positions in the arena. […] The camera footage was then analyzed for bouts of interactions with the tubes. […] Casual touching of the tubes in passing, or leaning onto the tubes to look around were not counted. The preference index for the displaced object was calculated as 100*(time spent with displaced object)/(total time spent with both displaced and familiar objects). The preference index for the familiar object was similarly calculated.

Data set [3] in a line: Body weight during and after paclitaxel injections. The protocol: as §1
In data set [4] the test system is granule cells in the dentate gyrus of the hippocampus. In words: Golgi-Cox staining and Sholl analysis of hippocampal neurons. Particulars: 30 DPI. The protocol:
(§2) Golgi-Cox staining solutions were prepared in advance, according to a published protocol (37). For tissue collection, each mouse was first anesthetized for ˜30 s with […] isoflurane, and then quickly decapitated with scissors. The skull was opened, and the brain was extracted and washed briefly in ice-cold 1× phosphate-buffered saline solution (PBS, AmericanBio). A razor blade was then used to dissect the brain into two hemispheres along the medial longitudinal fissure. One hemisphere was immediately dropped into a 25-mL scintillation vial containing 10 mL of impregnation stock solution. The other hemisphere was rapidly dissected into the cerebellum, hippocampus, frontal cortex, and midbrain, snap-frozen in liquid nitrogen, and then subsequently stored at −80° C. until further use.
Golgi-Cox staining was performed according to a published protocol (37). Briefly, the samples were impregnated with a potassium dichromate and mercuric chloride solution at room temperature for 7 days, followed by immersion in a cryoprotection solution for 4 days, and then sectioned into […] frontal slices with a vibratome. The Golgi Atlas of the Postnatal Mouse Brain was used as the reference to identify the section position of the slices (38). […] Spine density was quantified as the number of protrusions on dendritic branches per μm dendrite length

The subject of data set [5] is layers 2/3 cortical pyramidal neurons. In words: Golgi-Cox staining and Sholl analysis of cortical neurons. The protocol:
as §2
Golgi-Cox staining was performed according to a published protocol (37). Briefly, the samples were impregnated with a potassium dichromate and mercuric chloride solution at room temperature for 7 days, followed by immersion in a cryoprotection solution for 4 days, and then sectioned into […] frontal slices with a vibratome. The Golgi Atlas of the Postnatal Mouse Brain was used as the reference to identify the section position of the slices (38). Slices corresponding to frontal sections 10 and 11 in the atlas were selected for imaging the hippocampus and the parietal cortex. Slices corresponding to frontal sections 4 and 5 were selected for imaging the prefrontal cortex. The selected slices were mounted on 0.3% gelatin-coated slides, developed and dehydrated through a series of increasing alcohol concentrations, then with xylene, and finally mounted in Eukitt solution (Sigma Aldrich) for imaging. Z-stack images of different regions, including the dentate gyrus and the frontal cortex, were collected using a Zeiss LSM 710 Duo microscope with 20× and 60× objectives. […] Spines were imaged from basal dendritic branches at least […] away, and apical dendritic branches at least […] away from the cell soma. Scholl analysis, total dendritic length, number of branch points, and spine density were performed with ImageJ using the Simple Neurite Tracer plugin (39). Spine density was quantified as the number of protrusions on dendritic branches per μm dendrite length

Data set [6] has as its system PKCα. In words: Western blot of brain tissue for PKCα. The protocol: as §2
(§3) Frozen tissues were thawed in RIPA buffer containing protease inhibitor, phenylmethylsulfonyl fluoride (PMSF), and sodium orthovanadate (Santa Cruz), homogenized with a polytron, and then spun down twice at 13000 rpm, 4° C. to remove cell debris. Protein concentration was quantified using Pierce BCA protein assay kit (ThermoFisher Scientific) according to the manufacturer's instruction. Western blots were performed using the NuPAGE system (ThermoFisher Scientific) and PVDF membrane with the Biorad wet transfer system (Bio-Rad Laboratories). Approximately 20 μg total protein was loaded into each lane. Information about the antibodies used is included in Supp.

In data set [7] the test system is pMARCKS (S152/156). Put plainly: Western blot of brain tissue for pMARCKS. As to conditions: cortex, 24 h after paclitaxel injection. The protocol:
as §2
as §3, with “Information about the antibodies used is included in Supp.” left out

The test system of data set [8] is InsP3R1, NCS1, phospholipase C (PLC-β1). Put plainly: Western blot of brain tissue for other InsP3R pathway proteins. As to conditions: 30 DPI, paclitaxel. The protocol: as §2
as §3, with “Information about the antibodies used is included in Supp.” left out

Where [9] appears, read: medial prefrontal cortex, comparison among 4 groups.
The mark [10] stands for this setting: saline/paclitaxel vs the other three groups.

“Also recorded” adds a separate entry of the source.

In the case of `COc1ccc2c(c[n+](C)c3c4cc5c(cc4ccc23)OCO5)c1OC` [chelerythrine, chelerythrine chloride], in data set [1] (chelerythrine groups vs other groups, 4 DPI and 22 DPI), the “locomotor activity and anxiety (total distance moved, thigmotaxis)” value is listed as “no differences”.

Consider `CC(=O)O[C@H]1C(=O)[C@@]2(C)[C@H]([C@H](OC(=O)c3ccccc3)[C@]3(O)C[C@H](OC(=O)[C@H](O)[C@@H](NC(=O)c4ccccc4)c4ccccc4)C(C)=C1C3(C)C)[C@]1(OC(C)=O)CO[C@@H]1C[C@@H]2O` [paclitaxel], for which, in data set [2] (4×20 mg/kg paclitaxel, after optimization, time not stated), the DOR task performance result is “sufficient to impair DOR task performance without additional side effects”. In addition, the “preference for the displaced object (DOR task)” value is “no discrimination between the two objects; also recorded: did not discriminate between the objects; also recorded: impaired short-term spatial memory acquisition; also recorded: no preference for either object” in data set [2] (5 DPI) and “did not discriminate between the objects; also recorded: impaired short-term spatial memory acquisition; also recorded: persisted up to 23 DPI” in data set [2] (23 DPI). Moreover, in data set [1] (mouse, in vivo, 20 mg/kg), the “locomotor activity and anxiety (total distance, thigmotaxis)” value is reported as “neither impaired locomotor activity nor caused increased anxiety”. The body weight loss in data set [3] (after 2 paclitaxel injections, normalized to first day of injection (FIG. S1)) was 5-10%; in data set [3] (during injections, normalized to first day of injection (FIG. S3)), “approximately 5%”. The “weight loss, comparison among groups” value in data set [3] (over the injection duration) is on record as “No significant differences; also recorded: No significant weight loss”. Moreover, the total dendritic length result in data set [4] (saline and paclitaxel vs other groups) is recorded as “significant reduction”; in data set [5] (frontal cortex, saline and paclitaxel vs other groups, 30 DPI), “significant reduction”. The “dendritic complexity (Sholl analysis)” value in data set [4] (saline and paclitaxel vs saline/vehicle, particularly 20-90 μm from the soma) is “reduced dendritic arborization; also recorded: substantial reduction in dendritic complexity”; in data set [5] (frontal cortex, saline and paclitaxel, 30 DPI) it was “significant reduction in dendritic complexity”. For the same compound, the “basal dendrites: complexity (Sholl analysis)” value in data set [5] (setting [9]) is recorded as “no significant differences; also recorded: largely spared; also recorded: not observed in basal dendrites”. In addition, in data set [5] (setting [9]), the basal dendritic length entry is “no significant differences”. The basal spine density result in data set [5] (setting [9]) is “no significant differences”. Further, the “apical dendrites: dendritic arborization (Sholl analysis)” value in data set [5] (saline/paclitaxel vs saline/vehicle, particularly 110-230 μm) is reported as “reduced dendritic arborization; also recorded: primarily due to differences in apical dendrites”. Further, in data set [5] (setting [10]), the apical dendritic length result is reported as “significant reduction”. In data set [5] (setting [10]), the apical spine density result is recorded as “significant reduction”. Also, the PKCα protein level entry is on record as “upregulation” in data set [6] (cortex, 30 DPI (chronic), 4×20 mg/kg paclitaxel); “upregulation” in data set [6] (cortex, 24 h after a single 20 mg/kg paclitaxel injection (acute)); “upregulation” in data set [6] (hippocampus, 24 h after a single 20 mg/kg paclitaxel injection (acute)). Also, the “pMARCKS (S152/156) level” value in data set [7] is listed as “trend towards increased pMARCKS”. Besides, the “levels of other InsP3R pathway proteins (InsP3R1, NCS1, PLC-β1)” value in data set [8] is given as “No changes”.

The values are drawn from patent US20230031009A1, “TREATMENT FOR CHEMOBRAIN” (YALE UNIVERSITY, priority 2020, published 2023).
